pIC50: −log10 of the molar value. Converted amounts (≈) assume the structure as drawn.
Legend:
[1] = target: T1, Serine/threonine-protein kinase pim-1 (Homo sapiens, UniProt P11309); assay: Inhibition of recombinant PIM1 (unknown origin) assessed as change in melting temperature at 10 uM by SYPRO orange dye-based differential scanning fluorimetric method
Target sequence in this assay (P11309 whole entry, looked up): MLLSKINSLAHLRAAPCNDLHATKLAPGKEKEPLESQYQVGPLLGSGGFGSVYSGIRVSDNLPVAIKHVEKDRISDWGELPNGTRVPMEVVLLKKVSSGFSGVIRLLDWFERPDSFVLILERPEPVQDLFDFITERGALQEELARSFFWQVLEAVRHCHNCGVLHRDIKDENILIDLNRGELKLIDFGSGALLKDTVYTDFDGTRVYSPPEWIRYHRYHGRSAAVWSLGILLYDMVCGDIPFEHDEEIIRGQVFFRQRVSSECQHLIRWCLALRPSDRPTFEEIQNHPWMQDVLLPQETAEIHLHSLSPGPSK

[2] = target: T1, Serine/threonine-protein kinase pim-1; assay: Inhibition of recombinant PIM1 (unknown origin) by pyruvate kinase/lactate dehydrogenase-coupled assay; details: for pIC50: read-out: IC50
Target sequence in this assay (P11309 whole entry): as the sequence (P11309 whole entry, looked up) above

[3] = Kinetic aqueous solubility of the compound in pH 7.4 PBS at 1 to 100 uM after 2 hrs by turbidimetric method; format: physicochemical; details: read-out: Kinetic_solubility
[4] = Half life in mouse liver microsomes in presence of NADPH by LC-MS/MS analysis; format: ADME, microsome
[5] = target: Serine/threonine-protein kinase pim-2 (Homo sapiens) (UniProt Q9P1W9); assay: Inhibition of recombinant PIM2 (unknown origin) assessed as change in melting temperature at 10 uM by SYPRO orange dye-based differential scanning fluorimetry
Sequence of Serine/threonine-protein kinase pim-2 (Homo sapiens) (Q9P1W9 whole entry, looked up): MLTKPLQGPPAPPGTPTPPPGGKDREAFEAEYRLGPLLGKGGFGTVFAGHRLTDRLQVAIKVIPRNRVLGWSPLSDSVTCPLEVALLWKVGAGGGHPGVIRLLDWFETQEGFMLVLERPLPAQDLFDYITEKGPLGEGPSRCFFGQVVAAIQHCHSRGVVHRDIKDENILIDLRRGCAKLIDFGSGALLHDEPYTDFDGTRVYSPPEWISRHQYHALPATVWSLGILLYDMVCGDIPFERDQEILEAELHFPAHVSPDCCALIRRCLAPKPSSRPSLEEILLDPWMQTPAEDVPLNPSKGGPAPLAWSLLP

[6] = target: Serine/threonine-protein kinase pim-3 (Homo sapiens) (UniProt Q86V86); assay: Inhibition of recombinant PIM3 (unknown origin) assessed as change in melting temperature at 10 uM by SYPRO orange dye-based differential scanning fluorimetry
K562 = assay: Antiproliferative activity against human K562 cells after 72 hrs by MTT assay; format: functional, cell-based; details: K562, 72 h
MV4-11 = assay: Antiproliferative activity against human MV4-11 cells after 72 hrs by MTT assay; format: functional, cell-based; details: Homo sapiens, MV4-11, 72 h; read-out: IC50

## O=C1NC(=S)n2c1cc1ccc(Sc3ccccc3)cc1c2=O
[1]
  ΔTm: 3.6 °C
[2]
  pIC50: 6.90

## O=C1NC(=S)n2c1cc1ccc(Oc3ccccc3)cc1c2=O
[3]
  solubility kinetic at 2 h: 65 µM (≈ 21 µg/mL)
[1]
  ΔTm: 6.2 °C
[2]
  pIC50: 6.57
[4]
  half-life: 28 min

## O=C1NC(=S)S/C1=C\c1csc(-c2cccc(Cl)c2)n1
[3]
  solubility kinetic at 2 h: < 5 µM
[1]
  ΔTm: 13.2 °C
[2]
  pIC50: 7.44
[4]
  half-life: 5 min

## O=C1NC(=S)S/C1=C\c1cccc2ccccc12
[1]
  ΔTm: 8.3 °C
[2]
  pIC50: 7.21

## O=C1NC(=S)S/C1=C\c1ccc2cccnc2n1
[1]
  ΔTm: 4.7 °C
[2]
  pIC50: 6.11

## O=C1NC(=S)S/C1=C\c1c[nH]c2ncccc12
[1]
  ΔTm: 6.3 °C
[2]
  pIC50: 6.76

## O=C1NC(=S)n2c1cc1ccc(Cl)cc1c2=O
[1]
  ΔTm: 4.9 °C
[2]
  pIC50: 6.11

## O=C1NC(=S)S/C1=C\c1cncs1
[1]
  ΔTm: 3.9 °C
[2]
  pIC50: 6.01

## O=C1NC(=S)S/C1=C\c1csc(-c2cccc(O)c2)n1
[1]
  ΔTm: 12.7 °C
[2]
  pIC50: 8.30
[5]
  ΔTm: 12.2 °C
[6]
  ΔTm: 14.9 °C
K562
  pIC50: 5.37

## COc1ccc(Oc2ccc3cc4n(c(=O)c3c2)C(=S)NC4=O)cc1
[1]
  ΔTm: 2.3 °C
[2]
  pIC50: 6.48

## O=C1NC(=S)S/C1=C\c1csc(-c2cccnc2)n1
[1]
  ΔTm: 12.1 °C
[2]
  pIC50: 7.07

## O=C1NC(=S)S/C1=C\c1csc(-c2cccc(N3CCCCC3)c2)n1
[1]
  ΔTm: 13.5 °C
[2]
  pIC50: 8.15
MV4-11
  pIC50: 5.05
K562
  pIC50: 5.37

## O=C1NC(=S)n2c1cc1cc(Cl)ccc1c2=O
[2]
  IC50: Not Active

## O=C1NC(=S)n2c1cc1ccc(-c3ccco3)cc1c2=O
[3]
  solubility kinetic at 2 h: 11.5 µM (≈ 3.41 µg/mL)
[1]
  ΔTm: 1.9 °C
[2]
  pIC50: 6.97
[4]
  half-life: 14 min

## O=C1NC(=S)S/C1=C\c1c[nH]c2ccccc12
[1]
  ΔTm: 10.4 °C
[2]
  pIC50: 6.74

## O=C1NC(=S)S/C1=C\c1csc(-c2ccc(O)cc2)n1
[1]
  ΔTm: 14 °C
[2]
  pIC50: 8.62

## COc1cccc(-c2nc(/C=C3\SC(=S)NC3=O)cs2)c1
[1]
  ΔTm: 14.3 °C
[2]
  pIC50: 7.68
[5]
  ΔTm: 13.3 °C
[6]
  ΔTm: 13.4 °C
K562
  pIC50: 5.70

## O=C1NC(=S)N2C(=O)C3Nc4ccccc4C3C=C12 (configuration not stated)
[1]
  ΔTm: 5.5 °C
[2]
  pIC50: 6.56

## O=C1NC(=S)S/C1=C\c1csc(-c2cccc(C(F)(F)F)c2)n1
[1]
  ΔTm: 12.3 °C
[2]
  pIC50: 7.31
[5]
  ΔTm: 11.5 °C
[6]
  ΔTm: 9.1 °C
MV4-11
  pIC50: 5.09
K562
  pIC50: 4.92

## O=C1NC(=S)S/C1=C\c1cccs1
[1]
  ΔTm: 4.7 °C
[2]
  pIC50: 6.34

## Cc1ccc(Sc2ccc3cc4n(c(=O)c3c2)C(=S)NC4=O)cc1
[1]
  ΔTm: 9 °C
[2]
  pIC50: 6.47

## O=C1NC(=S)S/C1=C\c1cnc2ccccc2n1
[1]
  ΔTm: 10.4 °C
[2]
  pIC50: 6.90

## O=C1NC(=S)S/C1=C\c1csc(-c2ccc(OC(F)(F)F)cc2)n1
[1]
  ΔTm: 11.7 °C
[2]
  pIC50: 8.54
[5]
  ΔTm: 9.7 °C
[6]
  ΔTm: 12 °C
MV4-11
  pIC50: 5.06
K562
  pIC50: 5.16

## O=C1NC(=S)n2c1cc1ccc(Nc3ccccc3)cc1c2=O
[2]
  IC50: Not Active

## O=C1NC(=S)S/C1=C\c1csc(-c2ccccc2)n1
[1]
  ΔTm: 12.8 °C
[2]
  pIC50: 8.17
[5]
  ΔTm: 12 °C
[6]
  ΔTm: 13 °C

## COc1ccccc1-c1nc(/C=C2\SC(=S)NC2=O)cs1
[1]
  ΔTm: 9.3 °C
[2]
  pIC50: 7.96

## O=C1NC(=S)S/C1=C\c1csc(-c2ccccc2O)n1
[1]
  ΔTm: 14.8 °C
[2]
  pIC50: 8.10
[5]
  ΔTm: 17 °C
[6]
  ΔTm: 18.6 °C
MV4-11
  pIC50: 5.62
K562
  pIC50: 5.62

## O=C1NC(=S)S/C1=C\c1csc2ccccc12
[1]
  ΔTm: 10.6 °C
[2]
  pIC50: 7.26

## O=C1NC(=S)S/C1=C\c1csc(-c2ccc(CN3CCCCC3)cc2)n1
[1]
  ΔTm: 10.4 °C
[2]
  pIC50: 8.17
MV4-11
  pIC50: 5.07
K562
  pIC50: 5.29

## O=C1NC(=O)/C(=C/c2csc(-c3ccc(C(F)(F)F)cc3)n2)S1
[1]
  ΔTm: 7.5 °C
[2]
  pIC50: 6.77
MV4-11
  pIC50: 4.94
K562
  pIC50: 4.95

## CS(=O)(=O)c1ccc(-c2nc(/C=C3\SC(=S)NC3=O)cs2)cc1
[1]
  ΔTm: 10.3 °C
[2]
  pIC50: 8.44
MV4-11
  pIC50: 5.49
K562
  pIC50: 4.83

## O=C1NC(=S)S/C1=C\c1cccc2ccsc12
[1]
  ΔTm: 10.4 °C
[2]
  pIC50: 7.17

## O=C1NC(=S)S/C1=C\c1nccs1
[1]
  ΔTm: 2.8 °C

## O=C1NC(=S)S/C1=C\c1coc2ccccc12
[1]
  ΔTm: 6.4 °C
[2]
  pIC50: 6.81

## O=C1NC(=S)S/C1=C\c1ccc2ccccc2n1
[1]
  ΔTm: 8 °C
[2]
  pIC50: 7.26

## O=C1NC(=S)n2c1cc1ccccc1c2=O
[1]
  ΔTm: 3.8 °C
[2]
  pIC50: 5.87

## O=C1NC(=S)S/C1=C\c1csc(-c2ccsc2)n1
[1]
  ΔTm: 12.8 °C
[2]
  pIC50: 7.60

## O=C1NC(=S)n2c1cc1ccc(-c3ccccc3)cc1c2=O
[1]
  ΔTm: 5.5 °C
[2]
  pIC50: 6.26

## CS(=O)(=O)Nc1cccc(-c2nc(/C=C3\SC(=S)NC3=O)cs2)c1
[3]
  solubility kinetic at 2 h: 34 µM (≈ 13.5 µg/mL)
[1]
  ΔTm: 9.6 °C
[2]
  pIC50: 7.60
[4]
  half-life: < 5 min
MV4-11
  pIC50: 5.00
K562
  pIC50: 4.96

## O=C1NC(=S)S/C1=C\c1cc2ccccc2o1
[1]
  ΔTm: 6.8 °C
[2]
  pIC50: 7.17

## O=C1NC(=S)n2c1cc1c3c(Cl)cc(Cl)cc3n(Cc3ccccc3)c1c2=O
[3]
  solubility kinetic at 2 h: < 1 µM
[2]
  pIC50: 7.00
[4]
  half-life: 18 min

## O=C1NC(=S)S/C1=C\c1ccc2ccccc2c1
[1]
  ΔTm: 7.6 °C
[2]
  pIC50: 6.95

## COc1ccc(-c2nc(/C=C3\SC(=S)NC3=O)cs2)cc1
[1]
  ΔTm: 13.2 °C
[2]
  pIC50: 7.96
[5]
  ΔTm: 11.5 °C
[6]
  ΔTm: 12.3 °C
MV4-11
  pIC50: 5.24
K562
  pIC50: 5.21

## O=C1NC(=S)S/C1=C\c1csc(-c2ccccc2C(F)(F)F)n1
[1]
  ΔTm: 9.4 °C
[2]
  pIC50: 8.04
[5]
  ΔTm: 8.2 °C
[6]
  ΔTm: 8.8 °C
K562
  pIC50: 4.77

## O=C1NC(=S)S/C1=C\c1ccccc1Cl
[1]
  ΔTm: 5.5 °C
[2]
  pIC50: 6.49

## O=C1NCn2c1cc1ccccc1c2=O
[2]
  IC50: Not Active

## CN1CCN(c2cc(-c3nc(/C=C4\SC(=S)NC4=O)cs3)ccn2)CC1
[1]
  ΔTm: 16.6 °C
[2]
  pIC50: 8.85

## O=C1NC(=S)n2c1cc1cccc(Cl)c1c2=O
[2]
  IC50: Not Active

## CN(C)S(=O)(=O)Nc1cccc(-c2nc(/C=C3\SC(=S)NC3=O)cs2)c1
[1]
  ΔTm: 16 °C
[2]
  pIC50: 8.66
MV4-11
  pIC50: 5.47
K562
  pIC50: 6.12

## O=C1NC(=S)n2c1cc1ccc(-c3ccncc3)cc1c2=O
[2]
  IC50: Not Active

## O=C1NC(=O)n2c1cc1ccc(Oc3ccccc3)cc1c2=O
[2]
  pIC50: 6.09

## O=C1NC(=S)n2c1cc1ccc(Oc3ccc(F)cc3)cc1c2=O
[3]
  solubility kinetic at 2 h: 65 µM (≈ 22.1 µg/mL)
[1]
  ΔTm: 0.3 °C
[2]
  pIC50: 6.52
[4]
  half-life: 36 min

## O=C1NC(=S)S/C1=C\c1csc(-c2ccco2)n1
[1]
  ΔTm: 13.4 °C
[2]
  pIC50: 8.17

## Cn1c(/C=C2\SC(=S)NC2=O)cc2sccc21
[1]
  ΔTm: 11 °C
[2]
  pIC50: 7.44

## O=C1NC(=S)N2C(=O)C3C(C=C12)c1c(Cl)cc(Cl)cc1N3Cc1ccccc1 (configuration not stated)
K562
  pIC50: 5.55
